The record followed here is US20090004211A1, “METHOD FOR EFFECTING LOCALIZED, NON-SYSTEMIC AND SYSTEMIC, IMMUNOGENIC TREATMENT OF CANCER USING ERP57 TRANSLOCATION” (priority 2006, published 2009).

“Also recorded” adds a separate entry of the source. Non-standard residues stand in square brackets, D forms with d. Residues, ends and D or L forms follow the SMILES beside them. *: point of attachment. Nle = CCCC[C@H](N)C(=O)O; Cbz = O=C(OCc1ccccc1)*; CH2F = FC*

One experiment has as its system CT26 tumor cells. As to the kind of experiment: Anti-tumor vaccination: treated dying CT26 cells injected s.c., challenge with live tumor cells in opposite flank. The class given is in vivo, BALB/c mice.
The test system of experiment [1] is ERP57. Briefly: Fluorescence detection of cell surface ERP57 (cytofluorometry). The class given is cell-based, mouse. The conditions noted are these: for time after treatment at which ERP57 exposure is detectable: intact cells; for ERP57 exposure at cell surface: CT26 cells, agent alone; for ERP57 exposure of cells treated with etoposide plus inhibitor: in combination with etoposide. The procedure: CT26 cells (on a glass slide or in 12-well plates) were first washed with FACS buffer (1×PBS, 5% fetus bovine serum, and 0.1% sodium azide) and then incubated with rabbit anti-mouse CRT antibody (1:100, Stressgen), or rabbit anti-mouse ERP57 antibody (abcam) in FACS buffer at 4° C. for 30 min. Cells reacted with anti-rabbit IgG (H+L) Alexa fluor 488-conjugates (1:500) in FACS buffer at 4° C. for 30 min. After washing three times with FACS buffer, surface CRT and ERP57 was detected by cytofluorometric analysis on a FACS Vantage. In some experiments, cells were fixed with 4% paraformaldehyde, counterstained with Hoechst (2 μM; Sigma), followed by fluorescence microscopic assessment.

Another experiment deals with CRT. As to the kind of experiment: Fluorescence detection of cell surface CRT (cytofluorometry). The conditions noted are these: for time after treatment at which CRT exposure is detectable: intact cells; for CRT exposure at cell surface: CT26 cells, agent alone; for CRT exposure of cells treated with etoposide plus inhibitor: in combination with etoposide.
For a further experiment, the system named is CT26 tumors. Briefly: Treatment of established CT26 tumors by single intratumoral injection. The class given is in vivo, BALB/c mice. As for the experimental part:
All animals were maintained in specific pathogen-free conditions and all experiments followed the FELASA guidelines. 3×10^6 treated CT26 cells were inoculated s.c. in […] of PBS into BALB/c six-week-old female mice, into the lower flank, while 5×10^5 untreated control cells were inoculated into the contralateral flank. For the tumorigenicity assay, 3×10^6 treated or untreated CT26 cells were injected s.c. into nu/nu mice. To assess the specificity of the immune response against CT26, injections of either 5×10^5 or 5×10^6 of CT26 were made (for the mice immunized in a standard protocol or vaccination protocol, respectively). Tumors were evaluated weekly, using a caliper. In a series of experiments, BALB/c (wild type or nu/nu) carrying palpable CT26 tumors (implanted 14 days before for wild type or 7 days before for nu/nu mice by injection of […] tumor cells) received a single intratumoral injection of […] PBS containing the same concentration of anti-cancer agents and PP1/GADD34 inhibitors as those used in vitro, as well as rCRT ([…]). For the assessment of local immune response, 3×10^5 cells were injected in 50 μl into the footpad of mice. Five days later, mice were sacrificed and the draining lymph nodes were harvested. 1×10^5 lymph node cells were cultured for 4 days alone or with 1×10^4 CT26 cells killed by a freeze-thaw cycle in 200 μl in round-bottom 96-well plates. IFN-γ was determined by ELISA.

The test system of experiment [2] is ERP57. Briefly: Fluorescence detection of cell surface ERP57 (cytofluorometry). The class given is cell-based, mouse. The settings on record: murine MCA205, B16F10, J558; human HeLa, A549, HCT116.
Setting [3] is: CT26 cells treated in vitro with agent alone, immunocompetent BALB/c mice.
Setting [4] is: agent alone, immunocompetent BALB/c mice, 14-day-old CT26 tumors.
Where [5] appears, read: agent alone, immunodeficient nu/nu mice.
[6] abbreviates: pre-incubation for 1 h with the inhibitor.
The mark [7] stands for this setting: immunodeficient (athymic) animals.

Description for CRT: CT26 cells (on a glass slide or in 12-well plates) were first washed with FACS buffer (1×PBS, 5% fetus bovine serum, and 0.1% sodium azide) and then incubated with rabbit anti-mouse CRT antibody (1:100, Stressgen), or rabbit anti-mouse ERP57 antibody (abcam) in FACS buffer at 4° C. for 30 min. […] After washing three times with FACS buffer, surface CRT and ERP57 was detected by cytofluorometric analysis on a FACS Vantage. In some experiments, cells were fixed with 4% paraformaldehyde, counterstained with Hoechst (2 μM; Sigma), followed by fluorescence microscopic assessment.
Trypsinized CT26 cells were enucleated as described. Briefly, cells were treated in 2 ml of complete RPMI medium containing cytochalasin B (10 μg/ml; Sigma) and DNase I (80 U/ml; Sigma). […] Gradients containing cell suspensions were centrifugated in a prewarmed SW41 Beckman rotor at 25 000 rpm for 20 minutes at 30° C. […] Then the cell surface CRT was detected (see materials and methods) and the viability was determined by with propidium iodine staining (2 μg/ml, Sigma) for 5 min followed by cytofluorometric analysis.

In the case of `CCCC[C@@H](C=O)NC(=O)[C@H](CC(C)C)NC(=O)[C@H](CC(C)C)NC(C)=O` [ALLN] (Ac-Leu-Leu-[Nle]-aldehyde), in the experiment on CT26 tumor cells (setting [3]), the “immunogenicity of cell death (protection against tumor growth on rechallenge)” value (from here on “immunogenicity of cell death”) is listed as “failed to induce immunogenic apoptosis”.

Regarding `CCCCCCCCCCCCC/C=C/[C@@H](O)[C@H](CO)NC(C)=O` [C2 ceramide], in the experiment with CT26 tumor cells (setting [3]), the “immunogenicity of cell death” value was “failed to induce immunogenic apoptosis”.

For `CCCCCCCCCCCCC/C=C/[C@@H](O)[C@H](CO)NC(=O)CCCCCCCCCCCCCCC` [C16-ceramide], the “time after treatment at which ERP57 exposure is detectable” value in the experiment with ERP57 [1] was 1 h. The “time after treatment at which CRT exposure is detectable” value in the experiment with CRT stood at 1 h.

As to `CCOc1ccc(-c2nc3ccc(-c4nc5ccc(N6CCN(C)CC6)cc5[nH]4)cc3[nH]2)cc1` [Hoechst 33342], the “immunogenicity of cell death” value with CT26 tumor cells (setting [3]) is on record as “failed to induce immunogenic apoptosis”.

With `CC(C)C[C@@H](C=O)NC(=O)[C@H](CC(C)C)NC(=O)[C@H](CC(C)C)NC(=O)OCc1ccccc1` [MG132] (Cbz-Leu-Leu-Leu-aldehyde), in the experiment on CT26 tumor cells (setting [3]), the “immunogenicity of cell death” value is given as “failed to induce immunogenic apoptosis”.

For `COC(=O)C[C@H](NC(=O)[C@H](C)NC(=O)[C@@H](NC(=O)OCc1ccccc1)C(C)C)C(=O)CF` [Z-VAD-fmk] (Cbz-Val-Ala-Asp(OMe)-CH2F), in the experiment with CT26 tumor cells (combined with doxorubicin), the “effect on immunogenicity of doxorubicin-elicited cell death” value is listed as “reduces the immunogenicity of doxorubicin-elicited cell death”.

Turning to `C[C@H]1CCC/C=C/[C@@H]2C[C@H](O)C[C@H]2[C@H](O)/C=C/C(=O)O1` [brefeldin], in the experiment on CT26 tumor cells (setting [3]), the “immunogenicity of cell death” value was “failed to induce immunogenic apoptosis”.

For `CC[C@@]1(O)C(=O)OCc2c1cc1n(c2=O)Cc2cc3ccccc3nc2-1` [camptothecin], the “immunogenicity of cell death” value in the experiment with CT26 tumor cells (setting [3]) is on record as “failed to induce immunogenic apoptosis”.

`COc1cc([C@@H]2c3cc4c(cc3[C@@H](O[C@@H]3O[C@@H]5CO[C@@H](C)O[C@H]5[C@H](O)[C@H]3O)[C@H]3COC(=O)[C@H]23)OCO4)cc(OC)c1O` [etoposide]: the “immunogenicity of cell death” value in the experiment on CT26 tumor cells (setting [3]) is listed as “failed to induce immunogenic apoptosis; also recorded: poorly immunogenic”. Also, the “therapeutic effect of single intratumoral injection” value in the experiment with CT26 tumors (setting [4]) and in the experiment with CT26 tumors (setting [5]) was “no major therapeutic effect” throughout.

As for `CC(=O)[C@]1(O)Cc2c(O)c3c(c(O)c2[C@@H](O[C@H]2C[C@H](N)[C@H](O)[C@H](C)O2)C1)C(=O)c1ccccc1C3=O` [idarubicin], in the experiment on CT26 tumor cells (setting [3]), the “immunogenicity of cell death” value is recorded as “elicited immunogenic cell death”. The “time after treatment at which CRT exposure is detectable” value in the experiment with CRT came out at 1 h.

Take `C/C1=C/C(=O)O[C@@H]2C[C@@H](CC[C@H](C)/C=C\C=C\CC1)O[C@@](O)([C@@H]1CSC(=O)N1)C2` [latrunculin A]: the “effect on ERP57 exposure induced by anthracyclines and PP1/GADD34 inhibitors” value in the experiment on ERP57 [1] (setting [6]) is “abolished”. Besides, the “effect on CRT exposure induced by anthracyclines and PP1/GADD34 inhibitors” value in the experiment with CRT (setting [6]) is reported as “abolished”.

Turning to `CC(=O)N[C@@H](CSC(=O)[C@]1([C@@H](O)C(C)C)NC(=O)[C@H](C)[C@@H]1O)C(=O)O` [loctacystin], the “immunogenicity of cell death” value with CT26 tumor cells (setting [3]) is reported as “failed to induce immunogenic apoptosis”.

Take `CO[C@@]12[C@H](COC(N)=O)C3=C(C(=O)C(C)=C(N)C3=O)N1C[C@@H]1N[C@@H]12` [mitomycin C]: the “immunogenicity of cell death” value with CT26 tumor cells (setting [3]) is listed as “failed to induce immunogenic apoptosis”. Moreover, the “therapeutic effect of single intratumoral injection” value in the experiment on CT26 tumors (mouse, in vivo) is recorded as “no major therapeutic effect”.

On to `O=C1[O][Pt]2([NH][C@@H]3CCCC[C@H]3[NH]2)[O]C1=O` [oxaliplatin], for which, in the experiment on ERP57 [1], the “time after treatment at which ERP57 exposure is detectable” value turned out to be 1 h. For the same compound, the “time after treatment at which CRT exposure is detectable” value in the experiment with CRT turned out to be 1 h.

Turning to `CC(=O)O[C@H]1C(=O)[C@@]2(C)[C@H]([C@H](OC(=O)c3ccccc3)[C@]3(O)C[C@H](OC(=O)[C@H](O)[C@@H](NC(=O)c4ccccc4)c4ccccc4)C(C)=C1C3(C)C)[C@]1(OC(C)=O)CO[C@@H]1C[C@@H]2O` [paclitaxel], the “time after treatment at which ERP57 exposure is detectable” value with ERP57 [1] is 1 h. Moreover, the “time after treatment at which CRT exposure is detectable” value in the experiment on CRT turned out to be 1 h.

As for `O=C(/C=C/c1ccccc1)NC(NC(=S)Nc1cccc2cccnc12)C(Cl)(Cl)Cl` (centres unmarked) [salubrinal], in the experiment with ERP57 [2], the “ERP57 exposure on panel of tumor cell lines” value was “induced”. In addition, the “immunogenicity of cell death” value in the experiment on CT26 tumor cells (setting [3]) is “not sufficient to induce immunogenic cell death”. Besides, in the experiment on CT26 tumor cells (inhibitor combined with etoposide or mitomycin C), the “immunogenic potential of cells succumbing to etoposide or mitomycin C” value is on record as “greatly enhanced”. Also, in the experiment on ERP57 [1], the “ERP57 exposure at cell surface” value was “efficiently induced” and the “ERP57 exposure of cells treated with etoposide plus inhibitor” value is reported as “greatly enhanced”. Also, the “therapeutic effect of single intratumoral injection” value in the experiment on CT26 tumors (setting [4]) is “no major therapeutic effect”. Moreover, the “therapeutic effect of single intratumoral injection” value with CT26 tumors (setting [5]) is recorded as “no major therapeutic effect”. Also, in the experiment on CT26 tumors (immunocompetent animals), the “therapeutic effect of intratumoral injection combined with etoposide or mitomycin C” value was “stable disease or complete tumor regression”. Besides, the “therapeutic effect of intratumoral injection combined with etoposide or mitomycin C” value with CT26 tumors (setting [7]) was “not in athymic”. Also, in the experiment on CRT, the “CRT exposure at cell surface” value is given as “efficiently induced” and the “CRT exposure of cells treated with etoposide plus inhibitor” value is on record as “greatly enhanced”. In addition, the “CRT exposure on panel of tumor cell lines” value with CRT (murine MCA205, B16F10, J558, human HeLa, A549, HCT116) is on record as “induced”.

Turning to `CO[C@H]([C@H](O)CC(=O)[C@@H](C)[C@@H](O)CC[C@@H](C)[C@@H]1O[C@]2(CC[C@@H](C)[C@H](CC[C@H](C)C(C)=O)O2)CC[C@@H]1C)[C@H](OC(=O)C[C@@H](O)C1=C(C)C(=O)OC1=O)C(C)C` [tautomycin], in the experiment on CT26 tumor cells (setting [3]), the “immunogenicity of cell death” value was “not sufficient to induce immunogenic cell death”. For the same compound, in the experiment on CT26 tumor cells (mouse, in vivo), the “immunogenic potential of cells succumbing to etoposide or mitomycin C” value was “greatly enhanced”. Besides, the “ERP57 exposure at cell surface” value in the experiment on ERP57 [1] is “efficiently induced”. Besides, in the experiment on ERP57 [1], the “ERP57 exposure of cells treated with etoposide plus inhibitor” value is reported as “greatly enhanced”. The “therapeutic effect of single intratumoral injection” value with CT26 tumors (setting [4]) and with CT26 tumors (setting [5]) was “no major therapeutic effect” in each case. The results for the “therapeutic effect of intratumoral injection combined with etoposide or mitomycin C” value in the experiment with CT26 tumors (immunocompetent animals) and in the experiment on CT26 tumors (setting [7]) were “stable disease or complete tumor regression” and “not in athymic”, respectively. Moreover, the “CRT exposure at cell surface” value in the experiment on CRT was “efficiently induced”. The “CRT exposure of cells treated with etoposide plus inhibitor” value with CRT was “greatly enhanced”.

For the compound `CC(=O)O[C@@]12CO[C@@H]1C[C@H](O)[C@@]1(C)C(=O)[C@H](O)C3=C(C)[C@@H](OC(=O)[C@H](O)[C@@H](NC(=O)OC(C)(C)C)c4ccccc4)C[C@@](O)([C@@H](OC(=O)c4ccccc4)[C@H]21)C3(C)C` [taxotere, Docetaxel], the “time after treatment at which ERP57 exposure is detectable” value with ERP57 [1] was 1 h. Further, the “time after treatment at which CRT exposure is detectable” value in the experiment with CRT was 1 h.

As to `C/C=C(/C)C(=O)O[C@H]1C(C)=C2[C@H]([C@@H]1OC(=O)CCCCCCC)[C@@](C)(OC(C)=O)C[C@H](OC(=O)CCC)[C@@]1(O)[C@H]2OC(=O)[C@@]1(C)O` [thapsigargin], the “immunogenicity of cell death” value in the experiment with CT26 tumor cells (setting [3]) is reported as “failed to induce immunogenic apoptosis”.

Turning to arsenite, in the experiment with CT26 tumor cells (mouse, in vivo), the “immunogenicity of cell death” value was “failed to induce immunogenic apoptosis”.

On to tunicamycin, for which the “immunogenicity of cell death” value in the experiment on CT26 tumor cells (setting [3]) is reported as “failed to induce immunogenic apoptosis”.
